In patent US12173309B2, “Compounds for increasing genome editing efficiency” (Max-Planck-Gesellschaft zur Förderung der Wissenschaften …, priority 2017, dated 2024):
Entries after “also recorded” stand apart in the source; their conditions may differ.

Legend:
HEK293 cells = assay: PGE of HPRT with Cpf1 electroporation in non-pluripotent cells; format: cell-based, human; settings: 20 μM NU7026, 0.01 μM TSA, 0.5 μM MLN4924, 5 μM NSC 15520
Method: (§1) Stem cell lines cultured for this project included human 409-B2 hiPSC ([…], Riken BioResource Center) and SC102A1 hiPSC ([…], BioCat GmbH), chimpanzee SandraA ciPSC (female, Mora-Bermúdez et al. 201637), as well as H9 hESC ([…], WiCell Research Institute, Ethics permit AZ 3.04.02/0118). Stem cell lines were grown on Matrigel Matrix (Corning, 35248), and mTeSR1 (StemCell Technologies, 05851) with mTeSR1 supplement (StemCell Technologies, 05852) was used as culture media. Non-pluripotent cell types and their respective media used were: HEK293 (ECACC, 85120602) with DMEM/F-12 (Gibco, 31330-038) supplemented with 10% FBS (SIGMA, F2442) and 1% NEAA (SIGMA, M7145); K562 (ECACC, 89121407) with IMDM (ThermoFisher, 12440053) supplemented with 10% FBS; CD4^+ T (HemaCare, PB04C-1) with RPMI 1640 (ThermoFisher, 11875-093) supplemented with 10% FBS, and activated with Dynabeads Human T-Activator (CD3/CD28) (ThermoFisher, 11131D); CD34^+ progenitor (HemaCare, M34C-1) with StemSpan SFEM (Stemcell, 09600) supplemented with StemSpan CC110 (StemCell, 02697); and HEKa (Gibco, C0055C) with Medium 154 (ThermoFisher, M154500) and Human Keratinocyte Growth Supplement (ThermoFisher, S0015). Cells were grown at 37° C. in a humidified incubator gassed with 5% CO2. Media was replaced every day for stem cells and every second day for non-pluripotent cell lines. Cell cultures were maintained 4-6 days until ˜80% confluency, and subcultured at a 1:6 to 1:10 dilution. Adherent cells were dissociated using EDTA (VWR, 437012C). The media was supplemented with 10 μM Rho-associated protein kinase (ROCK) inhibitor Y-27632 (Calbiochem, 688000) after cell splitting for one day in order to increase cell survival.
(§2) The recombinant A.s. Cpf1 and S.p. Cas9 protein and electroporation enhancer was ordered from IDT (Coralville, USA) and nucleofection was done using the manufacturer's protocol, except for the following alterations. Nucleofection was done using the B-16 program (or U-14 for CD4^+ T cells) of the Nucleofector 2b Device (Lonza) in cuvettes for 100 μl Human Stem Cell nucleofection buffer (Lonza, VVPH-5022), or Human T Cell nucleofection buffer for CD4^+ T cells (Lonza, VPA-1002), and Human CD34 Cell nucleofection buffer for CD34^+ progenitor cells (Lonza, VPA-1003), containing 1 million cells of the respective lines, 78 pmol electroporation enhancer, 160 pmol of each gRNA (crRNA/tracR duplex for Cas9 and crRNA for Cpf1) (320 pmol for double nicking with both gRNAs for one gene), 200 pmol ssODN donor, 252 pmol CRISPR protein. For multiplexing, only gRNAs and single stranded DNA donors were electroporated, since a Cas9n expressing iCRISPR-Cas9n hiPSC line was used. Cells were counted using the Countess Automated Cell Counter (Invitrogen). […]

K562 cells = assay: as above; format: cell-based, human; settings: 20 μM NU7026, 0.01 μM TSA, 0.5 μM MLN4924, 5 μM NSC 15520
Method: as §1, §2

[1] = Solubility of stock in DMSO; format: physicochemical; settings: 10 mM stock in DMSO
Method: Commercially available small molecules used in this study were NU7026 (SIGMA, […]), TSA (SIGMA, […]), MLN4924 (Adooq BioScience, A11260), NSC 19630 (Calbiochem, 681647), NSC 15520 (ChemBridge, 6048069), AICAR (SIGMA, A9978), RS-1 (Calbiochem, 553510), Resveratrol (Selleckchem, S1396), SCR7 (XcessBio, M60082-2s), L755507 (TOCRIS, 2197), B02 (SIGMA, SML0364) and STL127685 (Vitas-M). STL127685 is a 4-fluorophenyl analog of the non-commercially available STL127705. Stocks of 15 mM (or 10 mM for NU7026) were made using dimethylsulfoxide (DMSO)(Thermo Scientific, D12345). […] Suitable working solutions for different concentrations were made so that addition of each small molecule accounts for a final concentration of 0.08% (or 0.2% for NU7026) DMSO in the media. Addition of all small molecules would lead to a final concentration of 0.7% DMSO.

## O=c1cc(N2CCOCC2)oc2c1ccc1ccccc12 [NU7026]
HEK293 cells
  effect on PGE efficiency: strongly increases; also recorded: increases
K562 cells
  effect on PGE efficiency: strongly increases; also recorded: increases
[1]
  solubility: limiting factor

## NS(=O)(=O)OC[C@@H]1C[C@@H](n2ccc3c(N[C@H]4CCc5ccccc54)ncnc32)C[C@@H]1O [MLN4924, Pevonedistat]
HEK293 cells
  effect on PGE efficiency: clear disruptive effect
K562 cells
  effect on PGE efficiency: clear disruptive effect
